Results reported in US8309685B2 (Celgene Avilomics Research, Inc., priority 2007, dated 2012).
Like-named read-outs stand apart in the source and are kept apart here.

What was measured:
[1] = biological target: T1, wild type HCV NS3/4A 1b protease enzyme (Hepatitis C virus genotype 1b, UniProt P26663); assay: biochemical; format: biochemical
T1 construct: 10× stocks of NS3/4A protease enzyme from Bioenza (Mountain View, Calif.); purchased Bioenza (Mountain View, Calif.)
Procedure: (§1) HCV Protease FRET Assay for Wild Type and Mutated NS3/4A 1b Enzymes (IC50)
(§2) Protease reactions were started with the addition of 45 μL of the FRET substrate and monitored for 120 minutes at λex487/λem514 through Quad^4 monochromoters in a Synergy^4 plate reader from BioTek (Winooski, Vt.). At the conclusion of each assay, progress curves from each well were examined for linear reaction kinetics and fit statistics (R^2, absolute sum of squares).
(§3) The compound numbers correspond to the compound numbers in Table 3.

[2] = biological target: T2, A156T mutant of the HCV NS3/4A 1b protease enzyme (Hepatitis C virus genotype 1b, UniProt P26663, A1182T); assay: HCV Protease FRET Assay (IC50), A156T mutant; format: biochemical
T2 construct: 10× stocks of NS3/4A protease enzyme from Bioenza (Mountain View, Calif.); purchased Bioenza (Mountain View, Calif.)
Procedure: as §1
The protocol is a modified FRET-based assay (v—02) from In Vitro Resistance Studies of HCV Serine Protease Inhibitors, 2004, JBC, vol. 279, No. 17, pp 17508-17514.
10× stocks of NS3/4A protease enzyme from Bioenza (Mountain View, Calif.) and 1.13× 5-FAM/QXL™ 520 FRET peptide substrate from Anaspec (San Jose, Calif.) were prepared in 50 mM HEPES, pH 7.8, 100 mM NaCl, 5 mM DTT and 20% glycerol. 5 μL of each enzyme were pre-incubated in a Corning (#3573) 384-well, black, non-treated microtiter plate (Corning, N.Y.) for 30 min at 25° C. with a 0.5 μL volume of 50% DMSO and serially diluted compounds prepared in 50% DMSO. Protease reactions were started with the addition of 45 μL of the FRET substrate and monitored for 120 minutes at λex487/λem514 through Quad^4 monochromoters in a Synergy^4 plate reader from BioTek (Winooski, Vt.). At the conclusion of each assay, progress curves from each well were examined for linear reaction kinetics and fit statistics (R^2, absolute sum of squares). Initial velocity (0 minutes to 30+ minutes) from each reaction was determined from the slope of a plot of relative fluorescence units vs time (minutes) and then plotted against inhibitor concentration to estimate IC50 from log[Inhibitor] vs Response, Variable Slope model in GraphPad Prism from GraphPad Software (San Diego, Calif.).
The compound numbers correspond to the compound numbers in Table 3. […] ;

[3] = biological target: T3, D168A mutant of the HCV NS3/4A 1b protease enzyme (Hepatitis C virus genotype 1b, UniProt P26663, D1194A); assay: HCV Protease FRET Assay (IC50), D168A mutant; format: biochemical
T3 construct: 10× stocks of NS3/4A protease enzyme from Bioenza (Mountain View, Calif.); purchased Bioenza (Mountain View, Calif.)
Procedure: as §1, §2, §3

[4] = system: HCV RNA replicon in cell line ET (luc-ubi-neo/ET), human Huh7 hepatoma; assay: Method A: HCV RNA replicon antiviral assay (luciferase, ET cell line); format: cell-based, Hepatitis C virus
Summary of the method: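 ET replicon cells (Huh7 carrying luciferase-reporter HCV replicon) plated at 5×10^3 cells/well and exposed 72 hr to six 3-fold drug concentrations in DMEM/5% FBS. Replicon luciferase gave EC50/EC90; CytoTox-1 cell counts gave IC50 (viability); […]. Interferon alpha-2b served as positive control.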

[5] = system: cell line ET (luc-ubi-neo/ET), human Huh7 hepatoma cell line; assay: Method A: cytotoxicity in ET replicon cells (CytoTox-1); format: cell-based; conditions: concentration decreasing cell viability by 50%, 72 hr
Procedure: The compounds were assayed to evaluate the antiviral activity and cytotoxicity of compounds in vitro using HCV RNA replicons. This assay used the cell line ET (luc-ubi-neo/ET), which is a human Huh7 hepatoma cell line that contains an HCV RNA replicon with a stable luciferase (Luc) reporter and three cell culture-adaptive mutations. […]
The ET cell line was grown in Dulbecco's modified essential media (DMEM), 10% fetal bovine serum (FBS), 1% penicillin-streptomycin (pen-strep), 1% glutamine, 250 μg/ml G418 in a 5% CO2 incubator at 37° C. All cell culture reagents were obtained from Mediatech (Manassas, Va.). Cells were trypsinized (1% trypsin:EDTA) and plated out at 5×10^3 cells/well in white 96-well assay plates (Costar) dedicated to cell number (cytotoxicity) or antiviral activity assessments. Drugs were added at six 3-fold concentrations each and the assay was run in DMEM, 5% FBS, 1% pen-strep, 1% glutamine. Human interferon alpha-2b (PBL Biolabs, New Brunswick, N.J.) was included in each run as a positive control compound. Cells were processed 72 hr post drug addition when the cells are still subconfluent. Antiviral activity was measured by analyzing replicon-derived luciferase activity using the Steady-Glo Luciferase Assay System (Promega, Madison, Wis.) according to manufacturer's instruction. The number of cells in each well was determined by CytoTox-1 reagent (Promega). […].

[6] = biological target: T1, wild type HCV NS3/4A 1b protease enzyme; assay: HCV Protease FRET Assay (IC50_APP), wild type; format: biochemical; conditions: read-out: IC50_APP, WT; apparent IC50, wild type NS3/4A 1b
[7] = biological target: T2, A156T mutant of the HCV NS3/4A 1b protease enzyme; assay: HCV Protease FRET Assay (IC50_APP), A156T mutant; format: biochemical
[8] = biological target: T3, D168A mutant of the HCV NS3/4A 1b protease enzyme; assay: HCV Protease FRET Assay (IC50_APP), D168A mutant; format: biochemical
[9] = read-out: Inhibition, WT; WT enzyme, FRET assay
[10] = read-out: Inhibition, HCV A156T; A156T enzyme, FRET assay
[11] = read-out: Inhibition, HCV D168A; D168A enzyme, FRET assay
[12] = Hepatitis C virus, Huh-7, Replicon, assay of Example 22, 72 hr, read-out: Inhibition, Replicon
[13] = Hepatitis C virus, Huh-7, assay described in Example 22
[14] = Hepatitis C virus, Huh-7, assay described in Example 22, read-out: Replicon (IC50)

Row | Compound | IC50 [1, 9] [nM] | IC50 [2, 10] [nM] | IC50 [3, 11] [nM] | IC50 [4, 12] [nM] | Inhibition, Cytotoxicity [5] | IC50 ([1]; WT enzyme, FRET assay; read-out: Inhibition, WT) [nM] | IC50 ([2]; A156T enzyme, FRET assay; read-out: Inhibition, HCV A156T) [nM] | IC50 ([3]; D168A enzyme, FRET assay; read-out: Inhibition, HCV D168A) [nM] | IC50 ([4]; Replicon, assay of Example 22, 72 hr, read-out: Inhibition, Replicon) [nM] | IC90 [4, 13] [nM] | IC50 [4, 14] [nM] | IC50 [6] [nM] | IC50 ([7]; read-out: IC50_APP, HCV A156T; apparent IC50, A156T mutant) [nM] | IC50 ([8]; read-out: IC50_APP, HCV D168A; apparent IC50, D168A mutant) [nM] | IC50 ([7]; apparent IC50, A156T mutant; read-out: IC50_APP, HCV A156T) [nM] | IC50 ([8]; apparent IC50, D168A mutant; read-out: IC50_APP, HCV D168A) [nM]
1 | C=C[C@@H]1C[C@]1(NC(=O)[C@@H]1C[C@@H](Oc2cc(-c3ccccc3)nc3cc(OC)ccc23)CN1C(=O)[C@H](CNC(=O)/C=C/CN(C)C)NC(=O)OC(C)(C)C)C(=O)NS(=O)(=O)c1ccccc1 [Compound I-5, N-[(1,1-dimethylethoxy)carbonyl]-3-[(4-dimethylamino-2-butenoyl)amino]-L-alanyl-(4R)-4-[(7-methoxy-2-phenyl-4-quinolinyl)oxy]-L-prolyl-1-amino-2-ethenyl-N-(phenylsulfonyl)-(1R,2S)-cyclopropanecarboxamide] | < 10 | 1000 to 10000 | 1000 to 10000 | 1000 to 10000 | E (IC50≧10,000 nM) | – | – | – | – | – | – | – | – | – | – | –
2 | C=C[C@@H]1C[C@]1(NC(=O)[C@@H]1C[C@@H](Oc2cc(-c3ccccc3)nc3cc(OC)ccc23)CN1C(=O)[C@H](CNC(=O)CC)NC(=O)OC(C)(C)C)C(=O)NS(=O)(=O)c1ccccc1 [I^R-3, N-[(1,1-dimethylethoxy)carbonyl]-3-[(propionyl)amino]-L-alanyl-(4R)-4-[(7-methoxy-2-phenyl-4-quinolinyl)oxy]-L-prolyl-1-amino-2-ethenyl-N-(phenylsulfonyl)-(1R,2S)-cyclopropanecarboxamide] | – | – | – | – | E (IC50≧10,000 nM) | < 10 | 10 to 100 | 100 to 1000 | 1000 to 10000 | – | – | – | – | – | – | –
3 | C=CC(=O)NCC[C@H](NC(=O)OC(C)(C)C)C(=O)N1C[C@H](Oc2cc(-c3ccccc3)nc3cc(OC)ccc23)C[C@H]1C(=O)N[C@]1(C(=O)NS(=O)(=O)c2ccccc2)C[C@H]1C=C [Compound I-8, (2S)-2-[[(1,1-dimethylethoxy)carbonyl]amino]-4-(2-propenoyl)amino-butanoyl-(4R)-4-[(7-methoxy-2-phenyl-4-quinolinyl)oxy]-L-prolyl-1-amino-2-ethenyl-N-(phenylsulfonyl)-(1R,2S)-cyclopropanecarboxamide] | < 10 | 10 to 100 | 10 to 100 | 100 to 1000 | D (IC50>1000 nM and <10,000 nM) | – | – | – | – | – | – | – | – | – | – | –
4 | C=C[C@@H]1C[C@]1(NC(=O)[C@@H]1C[C@@H](Oc2cc(-c3ccccc3)nc3cc(OC)ccc23)CN1C(=O)[C@H](CCNC(=O)CCl)NC(=O)OC(C)(C)C)C(=O)NS(=O)(=O)c1ccccc1 [Compound I-4, (2S)-2-[[(1,1-dimethylethoxy)carbonyl]amino]-4-(chloroacetyl)amino-butanoyl-(4R)-4-[(7-methoxy-2-phenyl-4-quinolinyl)oxy]-L-prolyl-1-amino-2-ethenyl-N-(phenylsulfonyl)-(1R,2S)-cyclopropanecarboxamide] | < 10 | 10 to 100 | 10 to 100 | 10 to 100 | D (IC50>1000 nM and <10,000 nM) | – | – | – | – | 100 to 1000 | 10 to 100 | < 10 | 100 to 1000 | 100 to 1000 | – | –
5 | C=CC(=O)N(C)CC[C@H](NC(=O)OC(C)(C)C)C(=O)N1C[C@H](Oc2cc(-c3ccccc3)nc3cc(OC)ccc23)C[C@H]1C(=O)N[C@]1(C(=O)NS(=O)(=O)c2ccccc2)C[C@H]1C=C [Compound I-12, (2S)-2-[[(1,1-dimethylethoxy)carbonyl]amino]-4-(2-propenoyl)methylamino-butanoyl-(4R)-4-[(7-methoxy-2-phenyl-4-quinolinyl)oxy]-L-prolyl-1-amino-2-ethenyl-N-(phenylsulfonyl)-(1R,2S)-cyclopropanecarboxamide] | < 10 | 10 to 100 | 10 to 100 | 10 to 100 | D (IC50>1000 nM and <10,000 nM) | – | – | – | – | 100 to 1000 | 10 to 100 | < 10 | – | – | 1000 to 10000 | 1000 to 10000
6 | C=C[C@@H]1C[C@]1(NC(=O)[C@@H]1C[C@@H](Oc2cc(-c3ccccc3)nc3cc(OC)ccc23)CN1C(=O)[C@H](Cn1sc2ccccc2c1=O)NC(=O)OC(C)(C)C)C(=O)NS(=O)(=O)c1ccccc1 [Compound I-10, N-[(1,1-dimethylethoxy)carbonyl]-3-(benzoisothiazolin-3-one-2-yl)-L-alanyl-(4R)-4-[(7-methoxy-2-phenyl-4-quinolinyl)oxy]-L-prolyl-1-amino-2-ethenyl-N-(phenylsulfonyl)-(1R,2S)-cyclopropanecarboxamide] | < 10 | 10 to 100 | 10 to 100 | 100 to 1000 | D (IC50>1000 nM and <10,000 nM) | – | – | – | – | – | – | – | – | – | – | –
7 | C=C[C@@H]1C[C@]1(NC(=O)[C@@H]1C[C@@H](Oc2cc(-c3ccccc3)nc3cc(OC)ccc23)CN1C(=O)[C@H](CN(C)C(=O)CCl)NC(=O)OC(C)(C)C)C(=O)NS(=O)(=O)c1ccccc1 [Compound I-29, tert-butyl-(S)-3-(2-chloro-N-methylacetamido)-1-((2S,4R)-4-(7-methoxy-2-phenylquinolin-4-yloxy)-2-((1R,2S)-1-(phenylsulfonylcarbamoyl)-2-vinylcyclopropylcarbamoyl)pyrrolidin-1-yl)-1-oxopropan-2-ylcarbamate] | < 10 | < 10 | < 10 | 10 to 100 | C (IC50>100 nM and ≦1000 nM) | – | – | – | – | – | – | – | – | – | – | –
8 | C=C[C@@H]1C[C@]1(NC(=O)[C@@H]1C[C@@H](Oc2cc(-c3ccccc3)nc3cc(OC)ccc23)CN1C(=O)[C@H](CCNC(=O)C(C)Br)NC(=O)OC(C)(C)C)C(=O)NS(=O)(=O)c1ccccc1 (some centres unmarked) [Compound I-20] | < 10 | 100 to 1000 | 100 to 1000 | 100 to 1000 | D (IC50>1000 nM and <10,000 nM) | – | – | – | – | – | – | – | – | – | – | –
